Measurements published in patent US12589090B2, “Compounds and methods for the treatment of degenerative disorders” (Aquilus Pharmaceuticals, Inc., priority 2019, dated 2026).
“Also recorded” adds a separate entry of the source.

Experiments:
[1] = In-vivo oral rat pharmacokinetics (Example 15); conditions: male Sprague-Dawley rats, dose level 10 mg/kg, 0.5% MC, plasma, mean
Method: Understanding the pharmacokinetics in species typically employed in preclinical animal testing is an essential component of drug discovery. […] Procedure: Six (6) male Sprague-Dawley rats were used. Fasting was conducted at least 16 hours prior to dose administration. Food was returned at approximately 4 hours post dose. The animals were placed into 2 groups of 3 animals per group. The oral (PO) formulation for Groups 1 & 2 were prepared on the day of dosing at a target concentration of 0.5 mg/mL in 0.5% Methylcellulose (400 cps) to produce a white, homogeneous suspension. Dosing was performed as outlined in Table 1:
Whole blood samples (0.250 mL; K2EDTA anticoagulant) were collected from each animal through a jugular vein catheter. Whole blood samples were collected from all animals pre-dose, and at 0.25, 0.5, 1, 2, 4, 8, 16, and 24 hours after dose administration. All blood samples were immediately placed on ice until processing. Whole blood samples were centrifuged at 2200×g for 10 minutes in a refrigerated centrifuge (5±3° C.) to isolate plasma. The plasma samples were transferred to individual polypropylene vials and immediately placed on dry ice before storage at nominally −20±5° C. The plasma samples sometime later were then thawed and extracted and analyzed by high pressure liquid chromatography (HPLC) coupled to Mass Spectrometry (MS) (Table 2). Pharmacokinetic parameters (Table 3) were estimated using WinNonlin® pharmacokinetic software (Version No. 5.2.1) using a non-compartmental approach consistent with the PO route of administration.

[2] = tested on: TDP-43 overexpressed flies; assay: TDP-43 pupal lethality screen (Example 23); format: in vivo, Drosophila; conditions: larvae raised on 1 microMolar; DMSO control 51%
Method: (§1) Procedure: UAS TDP-43 male Drosophila flies were crossed with D42-Gal4 female virgins on fly food containing either DMSO or 1% Compound 118 in dimethyl sulfoxide (DMSO). For DMSO controls, the same volume of DMSO as the corresponding Compound 118 concentration was added. Bromophenol blue was added to a final concentration of around 0.02% to ensure homogeneity. Crosses were made on drug food with three female virgins and two males in each vial and were maintained at 25° C. unless noted. The parents were discarded after 5-7 days and then the vials were screened for adult progeny with straight wings from Day 14 to Day 25. All adults were screened for TDP-43 expression by visualizing the YFP tag. Total number of pupae was counted on Day 25. Percent survival was calculated using the formula (total number of straight-winged adults/total number of pupae)×100. All experiments were performed in triplicate. Read-outs include larval turning assay and pupil lethality screen.
Compound 118 (represented as AQU-118) caused a decrease in lethality from 51% (bottom left) to 39% (bottom right). In this screen the number of adult TDP-43 overexpressed flies that emerge from their pupae stage is compared to w1118 controls. Larvae were raised on either DMSO or Compound 118 at 1 microMolar. N=number of pupae counted. Alive=empty pupal cases, adults have emerged. […]

Caspase 3 = Caspase 3 protein level in dorsal root ganglion of SNL rats via Western blotting (Examples 10, 17); format: in vivo, Sprague Dawley rats; conditions: Left DRG of SNL rats, 160 mg/Kg PO for 5 days, vs. Vehicle treated SNL rats, unpaired t-test
Text: Western blotting is a widely used analytical technique used to detect specific proteins in a sample of tissue homogenate or extract. Before one can perform Western blotting one must develop a technique for extracting the protein to be measured from the target tissue. Below is an example of the measurement of Caspase 3 from rat dorsal root ganglion (DRG) using Western blotting.
Protein Extraction Preparation: Frozen DRG tissue samples were homogenized in a radioimmunoprecipitation assay (RIPA) buffer (75 μl per sample) using a handheld pestle homogenizer, 30 seconds on ice. Samples were cleared by centrifugation at 14,000 rpm for 15 minutes at 4° C. Supernatants were collected and protein amount was determined using Bio-Rad DC protein kit.
Western Blotting: Protein samples were denatured in Laemmli buffer/2-mercaptoethanol for 5 minutes at 95 C. Denatured protein samples were separated by SDS-PAGE. After electrophoresis, proteins were transferred from gel to LFP-PVDF membranes by electroblotting. […]
Antibody binding was detected using the ECL Plus Western Chemifluorescence Detection Kit (Cat #32132, ThermoFisher Scientific). […] The scanned images from the Typhoon were analyzed with ImageQuantTL software version 7.0 (GE Healthcare Bioscience, Piscataway, NJ). Band intensities were determined using the Rolling Ball method. […]

Dissociation constant = format: physicochemical
[3] = tested on: TDP-43 overexpression in Drosophila motor neurons; assay: TDP-43 Drosophila model of ALS, larval turning read-out (Example 23); format: in vivo; conditions: 1 microMolar, TDP-43 (wild-type and G298S) overexpression, vs. DMSO vehicle
Method: as §1
TDP^WT=Wild-type TDP-43, TDP^G298S=Diseases associated G298S mutant expressed in motor neurons. […], ***p<0.001 as compared to DMSO as vehicle.

[4] = Solubility testing (Example 27); format: physicochemical

For [2H]C([2H])([2H])c1ccc(C#Cc2ccc(S(=O)(=O)N[C@H](Cc3c[nH]c4ccccc34)C(=O)O)s2)cc1 [Compound 118, (R)-3-(1H-Indol-3-yl)-2-[5-(4-trideuteromethyl-phenylethynyl)-thiophene-2-sulfonylamino]-propionic acid-(D3, 98%)], the AUC(0-inf) [1] was 7.73 µg·h/mL, the AUC(0-t) [1] was 7.68 µg·h/mL and the Cmax [1] was 2.74 µg/mL. For the same compound, the half-life [1] was 1.47 h, the “lethality (dead pupae)” value [2] was 39% and the “caspase 3 protein level in dorsal root ganglion (Western blotting)” value (Caspase 3) was “significant decrease of caspase 3 protein; also recorded: decrease in the caspase-3 protein levels”. For the same compound, the dissociation constant (Dissociation constant) was “around 3.4”, the “locomotive defects via larval turning times” value [3] was “able to mitigate locomotive defects” and the “solubility in DMSO, acetone and methanol” value [4] was “soluble”. The solubility in water ([4]; as the free acid) was “poorly soluble”.
